Results taken from US7247640B2, “Medicament for treatment of bone marrow suppression, for treatment of infectious diseases and for increasing the number of leukocytes” (Nippon Kayaku Kabushiki Kaisha, priority 2001, dated 2007).

How the values were obtained:
Type in all cases: in vivo, ICR strain male mice (Crj:CD-1)
[1] = system: G-CSF; assay: Test for investigating the increase of G-CSF concentration in normal mice (plasma, mouse G-CSF ELISA); conditions: blood on day after completion
Procedure: ICR strain male mice (Crj:CD-1) aged 7 weeks were used in the test. The animals were divided into 4 groups of 5 animals per group. The following were intravenously and repeatedly administered to the groups, respectively, for 5 days; the first group: physiological saline as solvent, the second group: sulphostin (10 mg/kg/day), the third group: sulphostin (30 mg/kg/day), and the fourth group: sulphostin (90 mg/kg/day). On the day subsequent to completion of the administration, blood was drawn from the abdominal aorta under anesthesia. The blood obtained was centrifuged to collect plasma, and G-CSF was measured by the use of a mouse G-CSF ELISA measuring kit (R & D SYSTEMS Inc.).

[2] = system: leukocytes; assay: Test for evaluating an efficacy on drug-induced leukopenia (cyclophosphamide); conditions: for number of leukocytes, percentage based on Day 0 / number of leukocytes (mean ± S.D): cyclophosphamide 200 mg/kg i.p. Day 0
Procedure: The effect of sulphostin [3(S)-amino-1-((R)-amino(sulfoamino)phosphinyl)-2-piperidone] on drug-induced leukopenia was evaluated according to the method of Okabe et al. (Yakuri to Chiryo (Japanese Pharmacology and Therapeutics) Vol. 19, No. 6, p. 55, 1991).
ICR strain male mice (Crj:CD-1) aged 8 weeks were used in the test. The animals were divided into three groups of 3 or 4 animals per group.
On Day 0, cyclophosphamide was intraperitoneally administered once to all the groups in a dose of 200 mg/kg. From the next day, the following were intravenously and repeatedly administered to the groups, respectively, for 5 days (Day 1 to 5); the first group (a control group): physiological saline, the second group: sulphostin (30 mg/kg/day), and the third group: sulphostin (100 mg/kg/day). Blood was drawn from the posterior-eyehole venous plexus on Day 0 (before the administration of cyclophosphamide) and Days 2, 4, 6 and 8 (the blood drawing, however, was carried out only on Days 0, 4 and 6 in the case of the second group), and the number of leukocytes was periodically measured to investigate the leukocyte-increasing effect of sulphostin relative to a decrease of leukocytes caused by cyclophosphamide.
The data are expressed as the mean±S.D and percentages based on the number of leukocytes on Day 0. ND refers to no data.

[3] = system: leukocytes; assay: Test for investigating the increase of leukocytes in normal mice; conditions: blood on day after last administration
Procedure: ICR strain male mice (Crj:CD-1) aged 7 weeks were used in the test. The animals were divided into 5 groups of 4 animals per group. The following were intravenously and repeatedly administered to the groups, respectively, for 5 days; the first group: physiological saline as solvent, the second group: sulphostin (2 mg/kg/day), the third group: sulphostin (10 mg/kg/day), the fourth group: sulphostin (50 mg/kg/day), and the fifth group: sulphostin (250 mg/kg/day). On the day subsequent to the last day of the administration period, blood was drawn from the abdominal aorta under anesthesia and the number of leukocytes was measured.

[4] = sulphostin 10 mg/kg/day i.v. for 5 days

`N[C@H]1CCCN([P@@](N)(=O)NS(=O)(=O)O)C1=O` [Sulphostin, 3(S)-amino-1-((R)-amino(sulfoamino)-phosphinyl)-2-piperidone] was tested, and the “G-CSF level higher than that of the control group by factor” value (shortened to “G-CSF level higher than that”) [1, 4] was 1.03, the “G-CSF level higher than that” value ([1]; sulphostin 30 mg/kg/day i.v. for 5 days) was 6.1 and the “G-CSF level higher than that” value ([1]; sulphostin 90 mg/kg/day i.v. for 5 days) was 7.0. For the same compound, the “number of leukocytes, percentage based on Day 0” value ([2]; sulphostin 30 mg/kg/day i.v. Day 1 to 5, Day 0 (before cyclophosphamide)) was 100%, the “number of leukocytes (mean ± S.D)” value ([2]; sulphostin 30 mg/kg/day i.v. Day 1 to 5, Day 0 (before cyclophosphamide), n = 3) was 44 ± 7.1 ×100/millimeter cube and the “number of leukocytes, percentage based on Day 0” value ([2]; sulphostin 30 mg/kg/day i.v. Day 1 to 5, Day 4) was 30%. For the same compound, the “number of leukocytes (mean ± S.D)” value ([2]; sulphostin 30 mg/kg/day i.v. Day 1 to 5, Day 4, n = 3) was 13 ± 12.5 ×100/millimeter cube, the “number of leukocytes, percentage based on Day 0” value ([2]; sulphostin 30 mg/kg/day i.v. Day 1 to 5, Day 6) was 95% and the “number of leukocytes (mean ± S.D)” value ([2]; sulphostin 30 mg/kg/day i.v. Day 1 to 5, Day 6, n = 3) was 42 ± 14.5 ×100/millimeter cube. For the same compound, the “number of leukocytes, percentage based on Day 0” value ([2]; sulphostin 100 mg/kg/day i.v. Day 1 to 5, Day 0 (before cyclophosphamide)) was 100%, the “number of leukocytes (mean ± S.D)” value ([2]; sulphostin 100 mg/kg/day i.v. Day 1 to 5, Day 0 (before cyclophosphamide), n = 4) was 38 ± 17.2 ×100/millimeter cube and the “number of leukocytes, percentage based on Day 0” value ([2]; sulphostin 100 mg/kg/day i.v. Day 1 to 5, Day 2) was 55%. For the same compound, the “number of leukocytes (mean ± S.D)” value ([2]; sulphostin 100 mg/kg/day i.v. Day 1 to 5, Day 2, n = 4) was 21 ± 5.1 ×100/millimeter cube, the “number of leukocytes, percentage based on Day 0” value ([2]; sulphostin 100 mg/kg/day i.v. Day 1 to 5, Day 4) was 26% and the “number of leukocytes (mean ± S.D)” value ([2]; sulphostin 100 mg/kg/day i.v. Day 1 to 5, Day 4, n = 4) was 10 ± 6.3 ×100/millimeter cube. For the same compound, the “number of leukocytes, percentage based on Day 0” value ([2]; sulphostin 100 mg/kg/day i.v. Day 1 to 5, Day 6) was 126%, the “number of leukocytes (mean ± S.D)” value ([2]; sulphostin 100 mg/kg/day i.v. Day 1 to 5, Day 6, n = 4) was 48 ± 23.8 ×100/millimeter cube and the “number of leukocytes, percentage based on Day 0” value ([2]; sulphostin 100 mg/kg/day i.v. Day 1 to 5, Day 8) was 668%. The “number of leukocytes (mean ± S.D)” value ([2]; sulphostin 100 mg/kg/day i.v. Day 1 to 5, Day 8, n = 4) was 254 ± 75.5 ×100/millimeter cube, the “restoration of the number of leukocytes to the initial value after the administration of cyclophosphamide, time required” value ([2]; sulphostin-treated groups (30 and 100 mg/kg/day i.v.), control group requires 8 days) was 6 days and the “number of leukocytes larger than that of the control group by factor” value (“number … by factor” below) ([3]; sulphostin 2 mg/kg/day i.v. for 5 days) was 1.4. The “number … by factor” value [3, 4] was 1.9, the “number … by factor” value ([3]; sulphostin 50 mg/kg/day i.v. for 5 days) was 4.9 and the “number … by factor” value ([3]; sulphostin 250 mg/kg/day i.v. for 5 days) was 5.9.
